# Data as given in patent US11185536B2, “Treatment of hearing loss by inhibition of casein kinase 1” (Massachusetts Eye & Ear Infirmary, priority 2015, dated 2021).
# “Also recorded” adds a separate entry of the source.
# How the values were obtained:
# Atoh1 [1] = assay: Steady-state abundance of Atoh1 in human 293T cells; assay type: cell-based
# Atoh1-Huwe1 binding = assay: Co-immunoprecipitation of Atoh1-Huwe1 binding and Atoh1 ubiquitylation in HEK cells; assay type: cell-based; conditions: HEK cells co-transfected with HA-ubiquitin and FLAG-Atoh1, 4 hours treatment, co-IP
# Method: HEK cells were co-transfected with HA-ubiquitin and FLAG-Atoh1 plasmids for 48 hours and treated with CK1 inhibitors (PF-670462 or D4476) and/or proteasome inhibitor MG132 (10 μM) for 4 hours. Immunoprecipitation was performed under denaturing conditions with anti-FLAG antibody. Endogenous Huwe1 was detected with an anti-Huwe1 antibody. Atoh1 was detected with anti-FLAG while ubiquitin was detected with anti-HA antibodies.
# To explore the effect of CK1 on proteasomal degradation of Atoh1, we performed co-IP experiments.
# [2] = test system: Atoh1-specific E-box activity; assay: Dual luciferase reporter assay with Atoh1 E-box associated motif (AtEAM) in HEK cells; assay type: cell-based; conditions: HEK cells with or without Atoh1 overexpression, overnight, normalized to Renilla luciferase
# Method: Dual luciferase assay using a firefly reporter construct with an AtEAM motif in HEK cells. Experiments were done in triplicate, and data are presented as the mean±SEM after normalization to Renilla luciferase
# DMSO or CK1 inhibitor D4476 was added to HEK with or without overexpression of Atoh1 for overnight to block the degradation of Atoh1 and therefore downstream Atoh1-specific E-box activity.
# To further assess potential roles of CK1 in the control of Atoh1 signaling, we performed dual luciferase reporter assays using a firefly reporter construct with an Atoh1 E-box associated motif (AtEAM) and a Renilla control reporter. AtEAM is a ten […] Atoh1-specific binding motif that represents the site for the activity of Atoh1 in numerous downstream genes (Klisch et al., Proc Natl Acad Sci USA. 2011 February 22; 108(8):3288-93). Inhibition of CK1 by D4476 increased and overexpression of CK1 (specifically CK1δ and/or CK1ε) reduced Atoh1 downstream signaling (FIG. 7A).
# Atoh1 [3] = assay: Atoh1 protein in newborn organ of Corti explants (Western blotting, densitometry); assay type: cell-based, mice; conditions: newborn mouse organ of Corti explants, 10 μM, 72 hours
# Method: Effect of CK1 inhibition on Atoh1 upregulation in the organ of Corti. Newborn organs of Corti (P1) were treated with the CK1 inhibitor D4476 (10 uM) for 72 hours. Atoh1 were quantified after Western blotting by densitometry and normalized to a loading control (beta-actin).
# organ of Corti explants = assay: Sox2 lineage tracing of supporting cells in organ of Corti explants (hair cell generation); assay type: cell-based, mice; set-up: double-labeled cells positive for Sox2 lineage and myosin VIIa: dose or concentration left out as unconfirmed
# From the text: Hair cell co-labeling with the lineage tag indicates derivation from a Sox2-positive cell (labeled with asterisks) and is thus evidence for newly generated hair cells by transdifferentiation of supporting cells. OHCs, at the bottom of the image, are delineated by a light gray bracket while IHCs, at the top of the image, are delineated by a white bracket. The scale bar is 25 μm.
# (B, C) Effect of CK1 inhibition was significant.
# Since CK1 inhibition stabilized Atoh1, we assessed its effect on hair cell generation in the cochlea. A Sox2-positive Cre-reporter strain crossed with CAG-TdTomato (Bramhall et al., Stem cell reports 2, 311-322 (2014)) was used to label all supporting cells for lineage tracing to follow supporting cells after CK1 inhibition.
# [4] = test system: Aminoglycoside-exposed organ of Corti explants; assay: Sox2 lineage tracing in aminoglycoside-exposed organ of Corti explants (hair cell regeneration); assay type: cell-based
# Method: Images of the basal turn of the lineage-traced organ of Corti damaged by gentamycin and treated with CK1 inhibitor D4476 for 72 hours. […] The scale bar is 25 μm.
# Aminoglycoside-exposed organ of Corti explants^3 were treated with 10 μM D4476 for 72 hours and lineage traced.
# [5] = organ of Corti explants, 10 μM, 72 hours, vs DMSO
Structure (SMILES),steady-state abundance of Atoh1 (Atoh1 [1]),Atoh1-Huwe1 binding (Atoh1-Huwe1 binding),ubiquitylation of Atoh1 (Atoh1-Huwe1 binding),Atoh1 downstream signaling (Atoh1-specific E-box activity) [2],Atoh1 protein in the cochlea based on densitometry (Atoh1 [3]),"double-labeled cells positive for Sox2 lineage and myosin VIIa (organ of Corti explants; mid-base region of neonatal mouse cochlear tissue, 3 days after treatment)",number of reporter-labeled inner hair cells (IHCs) (organ of Corti explants; [5]),number of reporter-labeled outer hair cells (OHCs) (organ of Corti explants; [5]),hair cell generation in the organ of Corti (organ of Corti explants; summary statement),"Sox2-lineage-tagged hair cells (co-labeled with myosin VIIa and TdTomato) after aminoglycoside damage ([4]; gentamycin-damaged explants, 10 μM, 72 hours)",hair cell regeneration after aminoglycoside damage ([4]; summary statement)
"NC(=O)c1ccc(-c2nc(-c3ccc4c(c3)OCCO4)c(-c3ccccn3)[nH]2)cc1 [D4476, 4-[4-(2,3-Dihydro-1,4-benzodioxin-6-yl)-5-(2-pyridinyl)-1H-imidazol-2-yl]benzamide]",increased the steady-state abundance of Atoh1,diminished Atoh1-Huwe1 binding,diminished,increases Atoh1-specific E-box activity; also recorded: increased,caused stabilization of Atoh1 protein,found both in the inner hair cell and outer hair cell area,significantly increased; also recorded: significantly more,significantly increased; also recorded: significantly more,increase hair cell generation,resulted in an increase of Sox2-lineage-tagged hair cells; also recorded: indicated transdifferentiation of supporting cells,promote hair cell regeneration
"COc1cc(OC)c(C=C2C(=O)Nc3ccccc32)c(OC)c1 [IC-261, 1,3-Dihydro-3-[(2,4,6-trimethoxyphenyl)methylene]-2H-indol-2-one]",increased the steady-state abundance of Atoh1,,,,,,,,,,
"Cl.Cl.Nc1nccc(-c2c(-c3ccc(F)cc3)ncn2C2CCCCC2)n1 [PF-670462, 4-[3-Cyclohexyl-5-(4-fluoro-phenyl)−3H-imidazol-4-yl]-pyrimidin-2-ylamine dihydrochloride]",increased the steady-state abundance of Atoh1,diminished Atoh1-Huwe1 binding,diminished,,,,,,,,
